In paper PMC11864979, “First-in-class ultralong-target-residence-time p38α inhibitors as a mitosis-targeted therapy for colorectal cancer” (Nature Cancer, 2025):
Read-outs that look alike come from different tables or passages of the source.

Assays:
Assay in all cases: selectivity profiling in a panel of 340 wild-type kinases (Reaction Biology Europe)
Assay type in all cases: binding
340 wild-type kinases [1] = target: T1, 340 wild-type kinases (Homo sapiens, UniProt Q13177)
T1 construct: purchased Reaction Biology Europe

340 wild-type kinases [2] = target: T2, 340 wild-type kinases (Homo sapiens, UniProt Q13131)
T2 construct: purchased Reaction Biology Europe

340 wild-type kinases [3] = target: T3, 340 wild-type kinases (Homo sapiens, UniProt Q9Y5S2)
T3 construct: purchased Reaction Biology Europe

340 wild-type kinases [4] = target: T4, 340 wild-type kinases (Homo sapiens, UniProt P24941)
T4 construct: purchased Reaction Biology Europe

340 wild-type kinases [5] = target: T5, 340 wild-type kinases (Homo sapiens, UniProt P51813)
T5 construct: purchased Reaction Biology Europe
T5 sequence (P51813 1-675): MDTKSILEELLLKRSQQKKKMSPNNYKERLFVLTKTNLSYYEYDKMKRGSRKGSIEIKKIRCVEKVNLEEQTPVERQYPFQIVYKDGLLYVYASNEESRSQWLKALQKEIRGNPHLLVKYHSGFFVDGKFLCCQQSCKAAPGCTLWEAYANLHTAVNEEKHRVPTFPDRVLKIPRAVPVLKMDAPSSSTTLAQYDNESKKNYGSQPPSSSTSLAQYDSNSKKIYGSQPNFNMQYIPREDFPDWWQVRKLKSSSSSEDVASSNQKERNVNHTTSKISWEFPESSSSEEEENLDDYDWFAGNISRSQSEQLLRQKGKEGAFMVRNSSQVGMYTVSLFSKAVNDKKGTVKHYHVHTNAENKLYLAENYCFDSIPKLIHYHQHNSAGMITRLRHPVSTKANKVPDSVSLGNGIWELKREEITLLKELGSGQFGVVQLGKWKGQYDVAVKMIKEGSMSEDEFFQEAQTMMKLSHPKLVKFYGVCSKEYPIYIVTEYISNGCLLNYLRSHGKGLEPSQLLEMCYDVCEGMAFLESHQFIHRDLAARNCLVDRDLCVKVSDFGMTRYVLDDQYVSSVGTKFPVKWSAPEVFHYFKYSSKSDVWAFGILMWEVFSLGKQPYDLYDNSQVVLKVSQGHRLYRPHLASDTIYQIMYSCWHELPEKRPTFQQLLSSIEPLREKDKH

340 wild-type kinases [6] = target: T6, 340 wild-type kinases (Homo sapiens, UniProt P06493)
T6 construct: purchased Reaction Biology Europe

340 wild-type kinases [7] = target: T7, 340 wild-type kinases (Homo sapiens, UniProt P49841)
T7 construct: purchased Reaction Biology Europe

340 wild-type kinases [8] = target: T8, 340 wild-type kinases (Homo sapiens, UniProt P27448)
T8 construct: purchased Reaction Biology Europe

340 wild-type kinases [9] = target: T9, 340 wild-type kinases (Homo sapiens, UniProt Q15759)
T9 construct: purchased Reaction Biology Europe

340 wild-type kinases [10] = target: T10, 340 wild-type kinases (Homo sapiens, UniProt Q9HBY8)
T10 construct: purchased Reaction Biology Europe
T10 sequence (Q9HBY8 1-367): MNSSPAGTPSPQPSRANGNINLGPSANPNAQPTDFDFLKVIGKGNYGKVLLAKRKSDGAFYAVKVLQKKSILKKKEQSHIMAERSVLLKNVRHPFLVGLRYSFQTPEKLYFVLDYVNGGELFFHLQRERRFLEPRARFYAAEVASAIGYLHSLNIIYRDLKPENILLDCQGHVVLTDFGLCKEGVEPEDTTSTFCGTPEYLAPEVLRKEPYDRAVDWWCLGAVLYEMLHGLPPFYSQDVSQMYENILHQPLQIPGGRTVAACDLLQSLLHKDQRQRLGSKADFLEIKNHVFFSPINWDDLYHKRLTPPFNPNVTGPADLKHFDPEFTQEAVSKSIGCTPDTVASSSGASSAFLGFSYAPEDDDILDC

T7 sequence (P49841 whole entry): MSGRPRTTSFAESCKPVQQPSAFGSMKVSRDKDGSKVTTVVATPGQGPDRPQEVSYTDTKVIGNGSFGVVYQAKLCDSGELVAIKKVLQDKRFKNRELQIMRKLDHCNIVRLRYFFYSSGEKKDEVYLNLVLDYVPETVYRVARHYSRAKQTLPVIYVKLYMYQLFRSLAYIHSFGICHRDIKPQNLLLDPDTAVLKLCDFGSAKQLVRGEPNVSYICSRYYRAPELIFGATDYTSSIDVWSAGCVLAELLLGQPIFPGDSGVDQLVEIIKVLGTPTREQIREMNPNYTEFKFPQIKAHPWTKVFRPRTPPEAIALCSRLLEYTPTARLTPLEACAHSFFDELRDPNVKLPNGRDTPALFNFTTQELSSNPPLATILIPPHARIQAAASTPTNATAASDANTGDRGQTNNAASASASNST
T1 sequence (Q13177 whole entry): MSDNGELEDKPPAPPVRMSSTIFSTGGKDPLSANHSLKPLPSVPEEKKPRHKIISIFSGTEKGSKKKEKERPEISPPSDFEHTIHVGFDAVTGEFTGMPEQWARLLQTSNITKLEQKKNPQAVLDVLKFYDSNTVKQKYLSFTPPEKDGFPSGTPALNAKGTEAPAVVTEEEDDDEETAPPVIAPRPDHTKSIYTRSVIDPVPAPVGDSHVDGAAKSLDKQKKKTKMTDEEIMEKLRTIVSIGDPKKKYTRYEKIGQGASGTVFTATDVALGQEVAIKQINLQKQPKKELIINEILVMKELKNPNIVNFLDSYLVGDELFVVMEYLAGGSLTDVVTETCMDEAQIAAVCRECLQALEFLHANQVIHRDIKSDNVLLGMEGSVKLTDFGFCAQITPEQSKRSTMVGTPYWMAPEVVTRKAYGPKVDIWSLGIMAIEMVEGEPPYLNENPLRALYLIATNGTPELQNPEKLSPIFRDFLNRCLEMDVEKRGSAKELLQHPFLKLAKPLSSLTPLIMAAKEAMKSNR
T9 sequence (Q15759 whole entry): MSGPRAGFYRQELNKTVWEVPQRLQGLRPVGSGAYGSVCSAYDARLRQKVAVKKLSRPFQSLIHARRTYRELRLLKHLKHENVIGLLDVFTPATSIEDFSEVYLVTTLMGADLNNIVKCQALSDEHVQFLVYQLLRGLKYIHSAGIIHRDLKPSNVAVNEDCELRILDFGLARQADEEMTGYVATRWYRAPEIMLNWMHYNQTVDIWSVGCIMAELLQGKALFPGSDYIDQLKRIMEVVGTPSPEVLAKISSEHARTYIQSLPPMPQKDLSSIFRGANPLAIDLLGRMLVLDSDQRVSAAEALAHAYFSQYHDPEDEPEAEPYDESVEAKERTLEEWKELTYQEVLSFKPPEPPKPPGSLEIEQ
T2 sequence (Q13131 whole entry): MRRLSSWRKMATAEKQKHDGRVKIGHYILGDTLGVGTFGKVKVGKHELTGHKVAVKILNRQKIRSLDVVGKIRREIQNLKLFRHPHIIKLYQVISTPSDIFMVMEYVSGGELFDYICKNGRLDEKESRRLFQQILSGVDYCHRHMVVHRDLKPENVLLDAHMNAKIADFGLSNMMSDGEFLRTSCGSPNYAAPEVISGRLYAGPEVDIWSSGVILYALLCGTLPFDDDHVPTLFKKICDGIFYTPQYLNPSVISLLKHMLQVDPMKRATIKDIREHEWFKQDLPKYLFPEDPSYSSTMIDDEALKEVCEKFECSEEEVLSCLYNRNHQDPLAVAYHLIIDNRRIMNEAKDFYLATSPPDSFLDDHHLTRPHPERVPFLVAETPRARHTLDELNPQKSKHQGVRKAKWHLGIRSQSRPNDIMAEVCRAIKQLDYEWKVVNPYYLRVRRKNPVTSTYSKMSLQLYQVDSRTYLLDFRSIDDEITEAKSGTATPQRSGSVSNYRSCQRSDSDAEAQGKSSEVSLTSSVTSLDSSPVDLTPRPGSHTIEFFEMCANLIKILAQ
T6 sequence (P06493 whole entry): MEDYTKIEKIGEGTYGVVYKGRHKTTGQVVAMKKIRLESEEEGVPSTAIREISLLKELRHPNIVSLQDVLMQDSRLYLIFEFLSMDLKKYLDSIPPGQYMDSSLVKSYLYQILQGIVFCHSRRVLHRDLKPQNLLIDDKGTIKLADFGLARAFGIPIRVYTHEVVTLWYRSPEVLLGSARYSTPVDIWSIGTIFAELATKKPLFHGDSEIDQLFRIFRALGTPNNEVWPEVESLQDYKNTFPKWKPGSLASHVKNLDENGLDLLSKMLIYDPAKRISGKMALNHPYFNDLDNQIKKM
T3 sequence (Q9Y5S2 whole entry): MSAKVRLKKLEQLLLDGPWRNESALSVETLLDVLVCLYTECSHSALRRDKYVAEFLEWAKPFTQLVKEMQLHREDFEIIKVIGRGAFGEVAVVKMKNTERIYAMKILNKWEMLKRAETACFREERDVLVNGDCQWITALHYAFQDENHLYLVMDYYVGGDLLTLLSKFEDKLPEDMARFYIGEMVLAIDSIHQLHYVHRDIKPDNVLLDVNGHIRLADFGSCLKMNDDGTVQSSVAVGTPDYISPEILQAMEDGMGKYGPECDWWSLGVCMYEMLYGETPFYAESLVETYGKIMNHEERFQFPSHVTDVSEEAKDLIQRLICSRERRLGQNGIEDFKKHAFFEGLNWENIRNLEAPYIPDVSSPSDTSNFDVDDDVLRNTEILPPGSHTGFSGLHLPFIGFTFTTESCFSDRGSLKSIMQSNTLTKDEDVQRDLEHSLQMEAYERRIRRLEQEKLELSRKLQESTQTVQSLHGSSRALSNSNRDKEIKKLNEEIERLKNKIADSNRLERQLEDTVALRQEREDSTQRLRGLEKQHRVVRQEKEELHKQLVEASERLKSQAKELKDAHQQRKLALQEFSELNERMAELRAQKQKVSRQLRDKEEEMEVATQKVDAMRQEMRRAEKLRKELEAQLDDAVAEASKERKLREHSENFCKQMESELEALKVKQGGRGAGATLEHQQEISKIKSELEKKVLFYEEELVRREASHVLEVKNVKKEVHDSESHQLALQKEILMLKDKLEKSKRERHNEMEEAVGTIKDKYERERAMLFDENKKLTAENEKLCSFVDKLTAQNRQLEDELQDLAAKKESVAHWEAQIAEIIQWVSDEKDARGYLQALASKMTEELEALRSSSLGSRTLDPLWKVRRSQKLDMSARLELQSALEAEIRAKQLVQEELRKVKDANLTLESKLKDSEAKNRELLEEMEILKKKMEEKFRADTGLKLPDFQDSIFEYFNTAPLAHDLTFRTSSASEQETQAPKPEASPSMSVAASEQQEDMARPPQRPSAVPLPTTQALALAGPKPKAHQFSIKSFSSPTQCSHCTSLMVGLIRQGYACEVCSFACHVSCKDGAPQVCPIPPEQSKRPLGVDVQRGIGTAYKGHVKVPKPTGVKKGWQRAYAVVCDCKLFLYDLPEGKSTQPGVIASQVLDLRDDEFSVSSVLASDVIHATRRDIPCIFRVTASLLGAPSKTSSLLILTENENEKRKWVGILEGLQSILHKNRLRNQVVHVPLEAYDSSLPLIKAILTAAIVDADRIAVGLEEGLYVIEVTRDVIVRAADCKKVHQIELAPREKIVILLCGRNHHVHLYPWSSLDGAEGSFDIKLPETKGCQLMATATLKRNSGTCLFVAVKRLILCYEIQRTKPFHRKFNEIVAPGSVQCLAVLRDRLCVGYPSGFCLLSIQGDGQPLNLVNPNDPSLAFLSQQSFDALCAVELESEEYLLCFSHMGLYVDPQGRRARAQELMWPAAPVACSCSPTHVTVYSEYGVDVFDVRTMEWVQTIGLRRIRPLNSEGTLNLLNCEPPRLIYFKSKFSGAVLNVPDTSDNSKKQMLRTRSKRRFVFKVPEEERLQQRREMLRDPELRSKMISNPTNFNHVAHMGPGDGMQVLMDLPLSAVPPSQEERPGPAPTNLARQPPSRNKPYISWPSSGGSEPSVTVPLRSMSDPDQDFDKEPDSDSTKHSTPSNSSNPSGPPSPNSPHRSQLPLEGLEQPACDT
T8 sequence (P27448 whole entry): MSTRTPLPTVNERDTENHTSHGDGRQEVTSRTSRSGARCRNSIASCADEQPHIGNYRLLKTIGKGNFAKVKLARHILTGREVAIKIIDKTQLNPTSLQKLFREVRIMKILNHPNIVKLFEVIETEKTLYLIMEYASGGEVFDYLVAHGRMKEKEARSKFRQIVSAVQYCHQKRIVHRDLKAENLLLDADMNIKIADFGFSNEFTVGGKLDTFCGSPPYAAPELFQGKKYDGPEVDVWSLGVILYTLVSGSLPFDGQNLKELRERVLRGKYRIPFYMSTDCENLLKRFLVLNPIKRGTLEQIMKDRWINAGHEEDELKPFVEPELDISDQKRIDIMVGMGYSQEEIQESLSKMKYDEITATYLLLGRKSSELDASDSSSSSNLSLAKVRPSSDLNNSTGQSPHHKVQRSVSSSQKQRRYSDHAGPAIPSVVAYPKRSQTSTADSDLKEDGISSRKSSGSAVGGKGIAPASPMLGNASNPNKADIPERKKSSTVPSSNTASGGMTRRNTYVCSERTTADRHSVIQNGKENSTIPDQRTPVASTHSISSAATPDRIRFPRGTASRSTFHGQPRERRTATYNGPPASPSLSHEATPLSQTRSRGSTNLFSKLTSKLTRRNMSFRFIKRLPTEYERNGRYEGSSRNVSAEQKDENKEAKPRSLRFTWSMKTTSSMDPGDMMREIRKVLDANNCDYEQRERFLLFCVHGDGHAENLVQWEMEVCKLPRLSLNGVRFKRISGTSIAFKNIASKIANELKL

## CNC(=O)c1ccc2c(c1)C(=O)c1ccc(Nc3ccc(F)c(NC(=O)C4CC4)c3)cc1CC2 [Compound 2015]
340 wild-type kinases [1]; 0.2 µM 2015, read-out: PAK2 residual activity
  remaining activity at 0.2 µM: 103%
340 wild-type kinases [1]; 1 µM 2015, read-out: PAK2 residual activity
  remaining activity at 1 µM: 102%
340 wild-type kinases [1]; PAK2, 0.2 µM, read-out: residual activity
  remaining activity at 0.2 µM: 103%
340 wild-type kinases [1]; PAK2, 1 µM, read-out: residual activity
  remaining activity at 1 µM: 102%
340 wild-type kinases [2]; 0.2 µM 2015, read-out: AMPKalpha1 residual activity
  remaining activity at 0.2 µM: 91.7%
340 wild-type kinases [2]; 1 µM 2015, read-out: AMPKalpha1 residual activity
  remaining activity at 1 µM: 101%
340 wild-type kinases [2]; AMPKalpha1, 0.2 µM, read-out: residual activity
  remaining activity at 0.2 µM: 91.8%
340 wild-type kinases [2]; AMPKalpha1, 1 µM, read-out: residual activity
  remaining activity at 1 µM: 101%
340 wild-type kinases [3]; 0.2 µM 2015, read-out: CDC42BPB residual activity
  remaining activity at 0.2 µM: 101%
340 wild-type kinases [3]; 1 µM 2015, read-out: CDC42BPB residual activity
  remaining activity at 1 µM: 93.2%
340 wild-type kinases [3]; CDC42BPB, 0.2 µM, read-out: residual activity
  remaining activity at 0.2 µM: 101%
340 wild-type kinases [3]; CDC42BPB, 1 µM, read-out: residual activity
  remaining activity at 1 µM: 93.2%
340 wild-type kinases [4]; 0.2 µM 2015, read-out: CDK2/CycA2 residual activity
  remaining activity at 0.2 µM: 92.5%
340 wild-type kinases [4]; 0.2 µM 2015, read-out: CDK2/CycD1 residual activity
  remaining activity at 0.2 µM: 90.3%
340 wild-type kinases [4]; 0.2 µM 2015, read-out: CDK2/CycE1 residual activity
  remaining activity at 0.2 µM: 121%
340 wild-type kinases [4]; 1 µM 2015, read-out: CDK2/CycA2 residual activity
  remaining activity at 1 µM: 87.2%
340 wild-type kinases [4]; 1 µM 2015, read-out: CDK2/CycD1 residual activity
  remaining activity at 1 µM: 96.5%
340 wild-type kinases [4]; 1 µM 2015, read-out: CDK2/CycE1 residual activity
  remaining activity at 1 µM: 109%
340 wild-type kinases [4]; CDK2/CycA2, 0.2 µM, read-out: residual activity
  remaining activity at 0.2 µM: 92.5%
340 wild-type kinases [4]; CDK2/CycA2, 1 µM, read-out: residual activity
  remaining activity at 1 µM: 87.2%
340 wild-type kinases [4]; CDK2/CycD1, 0.2 µM, read-out: residual activity
  remaining activity at 0.2 µM: 90.3%
340 wild-type kinases [4]; CDK2/CycD1, 1 µM, read-out: residual activity
  remaining activity at 1 µM: 96.5%
340 wild-type kinases [4]; CDK2/CycE1, 0.2 µM, read-out: residual activity
  remaining activity at 0.2 µM: 121%
340 wild-type kinases [4]; CDK2/CycE1, 1 µM, read-out: residual activity
  remaining activity at 1 µM: 109%
340 wild-type kinases [5]; 0.2 µM 2015, read-out: BMX residual activity
  remaining activity at 0.2 µM: 96.3%
340 wild-type kinases [5]; 1 µM 2015, read-out: BMX residual activity
  remaining activity at 1 µM: 86.5%
340 wild-type kinases [5]; BMX, 0.2 µM, read-out: residual activity
  remaining activity at 0.2 µM: 96.3%
340 wild-type kinases [5]; BMX, 1 µM, read-out: residual activity
  remaining activity at 1 µM: 86.5%
340 wild-type kinases [6]; 0.2 µM 2015, read-out: CDK1/CycA2 residual activity
  remaining activity at 0.2 µM: 99.4%
340 wild-type kinases [6]; 0.2 µM 2015, read-out: CDK1/CycB1 residual activity
  remaining activity at 0.2 µM: 92.8%
340 wild-type kinases [6]; 0.2 µM 2015, read-out: CDK1/CycE1 residual activity
  remaining activity at 0.2 µM: 100%
340 wild-type kinases [6]; 1 µM 2015, read-out: CDK1/CycA2 residual activity
  remaining activity at 1 µM: 101%
340 wild-type kinases [6]; 1 µM 2015, read-out: CDK1/CycB1 residual activity
  remaining activity at 1 µM: 83.7%
340 wild-type kinases [6]; 1 µM 2015, read-out: CDK1/CycE1 residual activity
  remaining activity at 1 µM: 90.1%
340 wild-type kinases [6]; CDK1/CycA2, 0.2 µM, read-out: residual activity
  remaining activity at 0.2 µM: 99.3%
340 wild-type kinases [6]; CDK1/CycA2, 1 µM, read-out: residual activity
  remaining activity at 1 µM: 101%
340 wild-type kinases [6]; CDK1/CycB1, 0.2 µM, read-out: residual activity
  remaining activity at 0.2 µM: 92.8%
340 wild-type kinases [6]; CDK1/CycB1, 1 µM, read-out: residual activity
  remaining activity at 1 µM: 83.7%
340 wild-type kinases [6]; CDK1/CycE1, 0.2 µM, read-out: residual activity
  remaining activity at 0.2 µM: 100%
340 wild-type kinases [6]; CDK1/CycE1, 1 µM, read-out: residual activity
  remaining activity at 1 µM: 90.1%
340 wild-type kinases [7]; 0.2 µM 2015, read-out: GSK3beta residual activity
  remaining activity at 0.2 µM: 98.7%
340 wild-type kinases [7]; 1 µM 2015, read-out: GSK3beta residual activity
  remaining activity at 1 µM: 86.4%
340 wild-type kinases [7]; GSK3beta, 0.2 µM, read-out: residual activity
  remaining activity at 0.2 µM: 98.7%
340 wild-type kinases [7]; GSK3beta, 1 µM, read-out: residual activity
  remaining activity at 1 µM: 86.3%
340 wild-type kinases [8]; 0.2 µM 2015, read-out: MARK3 residual activity
  remaining activity at 0.2 µM: 117%
340 wild-type kinases [8]; 1 µM 2015, read-out: MARK3 residual activity
  remaining activity at 1 µM: 100%
340 wild-type kinases [8]; MARK3, 0.2 µM, read-out: residual activity
  remaining activity at 0.2 µM: 117%
340 wild-type kinases [8]; MARK3, 1 µM, read-out: residual activity
  remaining activity at 1 µM: 100%
340 wild-type kinases [9]; 0.2 µM 2015, read-out: p38beta residual activity
  remaining activity at 0.2 µM: 1.85%
340 wild-type kinases [9]; 1 µM 2015, read-out: p38beta residual activity
  remaining activity at 1 µM: 1.94%
340 wild-type kinases [9]; p38beta, 0.2 µM, read-out: residual activity
  remaining activity at 0.2 µM: 1.85%
340 wild-type kinases [9]; p38beta, 1 µM, read-out: residual activity
  remaining activity at 1 µM: 1.94%
340 wild-type kinases [10]; 0.2 µM 2015, read-out: SGK2 residual activity
  remaining activity at 0.2 µM: 109%
340 wild-type kinases [10]; 1 µM 2015, read-out: SGK2 residual activity
  remaining activity at 1 µM: 104%
340 wild-type kinases [10]; SGK2, 0.2 µM, read-out: residual activity
  remaining activity at 0.2 µM: 109%
340 wild-type kinases [10]; SGK2, 1 µM, read-out: residual activity
  remaining activity at 1 µM: 104%
